The values below come from patent US20240382465A1, “AROMATIC ACETYLENE DERIVATIVE, AND PREPARATION METHOD THEREFOR AND USE THEREOF” (priority 2021, published 2024).

Each structure is given as a SMILES string. pIC50: −log10 of the molar value. ≈ marks a conversion by molar mass, not a printed value. Read-outs that look alike come from different tables or passages of the source.

The target of data set [1] is recombinant Pseudomonas aeruginosa LpxC (Pseudomonas aeruginosa (strain ATCC 15692 / DSM 22644 / CIP 104116 / JCM 14847 / LMG 12228 / 1C / PRS 101 / PAO1), UniProt P47205). Description: Inhibition of LpxC enzymatic activity (fluorescamine assay). In kind it is biochemical. The method, boiled down: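 Recombinant P. aeruginosa LpxC (5 nM) with substrate UDP-3-O-(R-3-hydroxydecanoyl)-GlcNAc (10 μM), 120 min at 25 °C; compound 8 points, 4-fold dilution, 0.61-10,000 nM. Product detected by fluorescamine (ex 390/em 495 nm) after stopping with pH 8.0 phosphate; % inhibition versus DMSO control.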

The subject of the next data set is E. coli ATCC 25922. Description: Antibacterial activity, MIC by broth microdilution (CLSI). In kind it is cell-based. The settings on record: Escherichia coli, ATCC25922; E. coli ATCC 25922, 35° C., 18 to 24 hours; read-out: MIC(E. coli). The method, boiled down:
(§1)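 Broth microdilution per CLSI, compound at 64-0.06 μg/mL final in twofold steps (1% DMSO from 100× working solutions). Inoculum 5×10^5 cfu/ml; plates incubated at 35° C for 18-24 hours.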

Another data set relates to K. pneumoniae ATCC13883. Described as above. In kind it is cell-based. The settings on record: Klebsiella pneumoniae; K. pneumoniae ATCC13883, 35° C., 18 to 24 hours; read-out: MIC(K. Pneumoniae). In outline: as §1
Data set [2] is described as follows: Pharmacokinetic assay in mice. The settings on record: ICR mice, 15 mg/kg, IV. Format: in vivo. On the procedure: ICR mice were used as test animals. The injected compounds 17 and 32 of the present disclosure were measured using the LC/MS/MS method to determine the drug concentrations in plasma at different times, in order to study the pharmacokinetic characteristics of the compounds of the present disclosure in mice.
ICR mice, male, weighing 27.8-38 g, were purchased from VitalRiver Laboratory Animal Technology Co., Ltd.
An appropriate amount of the pharmaceutical compound was weighed, added with an appropriate amount of 10% HP-β-CD, vortexed, sonicated for 20 minutes to dissolve the particles, and filtered (PTFE, […]) to obtain […] of a colorless solution.
ICR mice were divided into groups of injection of each test compound (nine mice in each group), fasted overnight, then administered by injection (IV, at an amount of 15 mg/kg and a volume of 5 mL/kg), and fed 4 hours after administration.
About 0.1 mL of blood was collected from the orbit before administration and 0.083 hours, 0.25 hours, 0.5 hours, 1 hour, 2 hours, 4 hours, 8 hours, 12 hours and 24 hours after administration. The whole blood samples were placed in EDTA-K2-containing anticoagulant tubes. After collected, the blood samples were placed on ice, and centrifuged to separate plasma (centrifugation conditions: 1500 g, 10 minutes). The collected plasma was stored at −40 to −20° C. before analysis.
The content of the compound to be tested in the plasma of mice after injection was determined using LC-MS/MS.

Data set [3] relates to Klebsiella pneumoniae ATCC 51504. Format: in vivo, CD-1 female mice. The settings on record: CD-1 mice. On the procedure: The efficacy of the compounds of the present disclosure against pulmonary infection caused by Klebsiella pneumoniae ATCC 51504 was determined by the following method. The experimental process is briefly described as follows: The experimental day of inoculating Klebsiella pneumoniae ATCC 51504 was defined as Day 0. On Day −4 and Day −1, CD-1 female mice (6-8 weeks old, purchased from VitalRiver Experimental Animal Technology Co., Ltd., divided into 3 groups, 5 animals in each group) were intraperitoneally injected with cyclophosphamide to induce an immunosuppressive state in mice. Klebsiella pneumoniae ATCC 51504 cells were cultured in advance on a Muaeller-Hinton agar culture plate in a 37° C. incubator overnight. The single colonies were collected, suspended in physiological saline, and adjusted to the required concentration using a turbidity meter. CD-1 female mice were inoculated via intranasal instillation. Each mouse was inoculated with 50 μL of bacterial solution, with an inoculation volume of 1×10^7 CFU/mouse. Two hours after infection, CD-1 female mice were intravenously administered with compound 17 and compound 32 at 150 mg/kg (solvent: 10% HP-β-CD in Sterile Water for Injection). 24 hours after infection, CD-1 female mice were euthanized. The lung tissue was taken, homogenized with physiological saline, and then diluted 10 times in a gradient for a total of 5 times. Then, 10 μL of lung tissue homogenate of each dilution ratio was taken, and inoculated into bacterial culture plates, which were incubated in a 37° C. incubator overnight, then photographed and saved. A culture plate with an appropriate dilution ratio was selected to count the number of colonies and calculate the bacterial load in the lung tissue to evaluate the efficacy of the drug in inhibiting bacteria. The determination results of the efficacy of the compounds of the present disclosure on pulmonary infection caused by Klebsiella pneumoniae are shown in Tables 4 and 5 below.

Where [4] appears, read: recombinant P. aeruginosa LpxC 5 nM, substrate 10 μM, 25° C., 120 minutes, read-out: IC50.

As usually defined, the pIC50 is −log10 of the IC50, conventionally taken in molar units. For orientation: MIC means the smallest concentration in the dilution series that meets the test's criterion for growth inhibition. Broadly, the clearance is a measure of how efficiently the substance is removed, as volume per time. The half-life is the time in which the quantity being followed falls by half. On to `C[C@H](O)c1nccn1Cc1cc(-c2ccc(C#Cc3ccc(CN4CCC(C(=O)O)CC4)cc3)cc2)on1` [Example 17, (S)-1-(4-((4-(3-((2-(1-hydroxyethyl)-1H-imidazol-1-yl)methyl)isoxazol-5-yl)phenyl)ethynyl)benzyl)piperidin-4-carboxylic acid], for which, in data set [1] (setting [4]), the negative logarithm of the IC50 (pIC50) is 8.17. For the same molecule, the minimal inhibitory concentration (MIC) in the data set on E. coli ATCC 25922 came out at 4 µg/mL (≈ 7.83 µM). The MIC in the data set on K. pneumoniae ATCC13883 worked out at 8 µg/mL (≈ 15.7 µM). In data set [2], the “Pharmacokinetic properties (conclusion)” value is “good pharmacokinetic properties”. The AUC(0-inf) in data set [2] (male, mouse, plasma, read-out: Area under curve AUC0-∞) worked out at 22500 ng·h/mL. Besides, in data set [2] (male, mouse, plasma, read-out: Clearance CL), the clearance came out at 11.1 mL/min/kg. For the same molecule, in data set [2] (male, mouse, plasma, read-out: Half life T½ (converted)), the half-life was 1.3 h. Moreover, in data set [2] (male, mouse, plasma, read-out: Volume of distribution Vdss), the Vd stood at 0.48 L/kg. In data set [3] (150 mg/kg intravenous), the “Change in the body weight of the mice” value is reported as “no significant change” and the “Reduction of total bacterial load of Klebsiella pneumoniae ATCC 51504 in the lungs compared with the control group” value was 4.78 log value. Also, in data set [3] (150 mg/kg intravenous 2 hours after infection, lungs taken 24 hours after infection), the “Bacterial load in lung, LOG (CFU/mouse), Mean” value is 4.17 LOG (CFU/mouse).
With `C[C@H](O)c1nccn1Cc1cc(-c2ccc(C#Cc3ccc(CNCCS(C)(=O)=O)cc3)cc2)on1` [Example 49, (S)-1-(1-((5-(4-((4-(((2-(methylsulfonyl)ethyl)amino)methyl)phenyl)ethynyl)phenyl)isoxazol-3-yl)methyl)-1H-imidazol-2-yl)ethan-1-ol], the pIC50 in data set [1] was 7.96. The minimum inhibitory concentration (MIC) with E. coli ATCC 25922 turned out to be 1 µg/mL (≈ 1.98 µM); with K. pneumoniae ATCC13883 it was 4 µg/mL (≈ 7.93 µM).
As for `C[C@H](O)c1nccn1Cc1cc(-c2ccc(C#Cc3ccc(CC(=O)O)nc3)cc2)on1` [Example 39, (S)-2-(5-((4-(3-((2-(1-hydroxyethyl)-1H-imidazol-1-yl)methyl)isoxazol-5-yl)phenyl)ethynyl)pyridin-2-yl)acetic acid], the pIC50 in data set [1] (setting [4]) was 7.70. Also, the minimal inhibitory concentration (MIC) in the data set on E. coli ATCC 25922 turned out to be 0.5 µg/mL (≈ 1.17 µM); in the data set on K. pneumoniae ATCC13883, 1 µg/mL (≈ 2.33 µM).
`C[C@H](O)c1nccn1Cc1cc(-c2ccc(C#Cc3ccc(OCCCN4CCOCC4)cc3)cc2)on1` [Example 75, (S)-1-(1-((5-(4-((4-(3-morpho-linopropoxy)phenyl)ethynyl)phenyl)isoxazol-3-yl)methyl)-1H-imidazol-2-yl)ethan-1-ol]: the pIC50 in data set [1] (setting [4]) was 7.21. For the same molecule, the MIC worked out at 1 µg/mL (≈ 1.95 µM) in the data set on E. coli ATCC 25922 and 2 µg/mL (≈ 3.9 µM) in the data set with K. pneumoniae ATCC13883.
For `C[C@H](O)c1nccn1Cc1cc(-c2ccc(C#Cc3ccc(CN4CCC(O)CC4)cc3)cc2)on1` [Example 18, (S)-1-(4-((4-(3-((2-(1-hydroxyethyl)-1H-imidazol-1-yl)methyl)isoxazol-5-yl)phenyl)ethynyl)benzyl)piperidin-4-ol], in that order: 8.01, 2 µg/mL (≈ 4.14 µM) and 4 µg/mL (≈ 8.29 µM).
For `C[C@H](O)c1nccn1Cc1cc(-c2ccc(C#Cc3ccc(CC(N)=O)nc3)cc2)on1` [Example 62, (S)-2-(5-((4-(3-((2-(1-hydroxyethyl)-1H-imidazol-1-yl)methyl)isoxazol-5-yl)phenyl)ethynyl)pyridin-2-yl)acetamide], in that order: 7.67, 1 µg/mL (≈ 2.34 µM) and 4 µg/mL (≈ 9.36 µM).
For `C[C@H](O)c1nccn1Cc1cc(-c2ccc(C#Cc3ccc(CCC(=O)O)nc3)cc2)on1` [Example 58, (S)-3-(5-((4-(3-((2-(1-hydroxyethyl)-1H-imidazol-1-yl)methyl)isoxazol-5-yl)phenyl)ethynyl)pyridin-2-yl)propanoic acid], in that order: 7.66, 4 µg/mL (≈ 9.04 µM) and 8 µg/mL (≈ 18.1 µM).
With `C[C@H](O)c1nccn1Cc1cc(-c2ccc(C#Cc3ccc(C(=O)N4CCN(C)CC4)cc3)cc2)on1` [Example 42, (S)-(4-((4-(3-((2-(1-hydroxyethyl)-1H-imidazol-1-yl)methyl)isoxazol-5-yl)phenyl)ethynyl)phenyl)(4-methylpiperazin-1-yl)methanone], the negative-log IC50 (pIC50) in data set [1] (setting [4]) was 8.24. For the same molecule, the MIC in the data set with E. coli ATCC 25922 came out at 2 µg/mL (≈ 4.04 µM); in the data set on K. pneumoniae ATCC13883, 4 µg/mL (≈ 8.07 µM).
For `C[C@H](O)c1nccn1Cc1cc(-c2ccc(C#Cc3ccccc3)cc2)on1` [Example 7, (S)-1-(1-((5-(4-(phenylethynyl)phenyl)isoxazol-3-yl)methyl)-1H-imidazol-2-yl)ethan-1-ol], in that order: 7.14, 0.25 µg/mL (≈ 0.677 µM) and 0.5 µg/mL (≈ 1.35 µM).
As for `C[C@H](O)c1nccn1Cc1cc(-c2ccc(C#Cc3ccc(CN4CCS(=O)(=O)CC4)cc3)cc2)on1` [Example 50, (S)-4-(4-((4-(3-((2-(1-hydroxyethyl)-1H-imidazol-1-yl)methyl)isoxazol-5-yl)phenyl)ethynyl)benzyl)thiomorpholine 1,1-dioxide], in data set [1] (setting [4]), the negative logarithm of the IC50 (pIC50) is 7.65. The values for the minimal inhibitory concentration (MIC) with E. coli ATCC 25922 and with K. pneumoniae ATCC13883 were 2 µg/mL (≈ 3.87 µM) and 4 µg/mL (≈ 7.74 µM), respectively.
For `C[C@H](O)c1nccn1Cc1cc(-c2ccc(C#Cc3cccnc3)cc2)on1` [Example 9, (S)-1-(1-((5-(4-(pyridin-3-ylethynyl)phenyl)isoxazol-3-yl)methyl)-1H-imidazol-2-yl)ethan-1-ol], in that order: 7.57, 1 µg/mL (≈ 2.7 µM) and 2 µg/mL (≈ 5.4 µM).
For `C[C@H](O)c1nccn1Cc1cc(-c2ccc(C#Cc3ccc(CN4CCNC(=O)C4)cc3)cc2)on1` [Example 54, (S)-4-(4-((4-(3-((2-(1-hydroxyethyl)-1H-imidazol-1-yl)methyl)isoxazol-5-yl)phenyl)ethynyl)benzyl)piperazin-2-one], in that order: 7.79, 2 µg/mL (≈ 4.15 µM) and 4 µg/mL (≈ 8.31 µM).
For `C[C@H](O)c1nccn1Cc1cc(-c2ccc(C#Cc3ccc(CNCC(N)=O)nc3)cc2)on1` [Example 61], in that order: 7.13, 1 µg/mL (≈ 2.19 µM) and 4 µg/mL (≈ 8.76 µM).
With `C[C@H](O)c1nccn1Cc1cc(-c2ccc(C#Cc3ccc(C(=O)NCCO)cc3)cc2)on1` [Example 25, (S)-N-(2-Hydroxyethyl)-4-((4-(3-((2-(1-hydroxyethyl)-1H-imidazol-1-yl)methyl)isoxazol-5-yl)phenyl)ethynyl)benzamide], the pIC50 in data set [1] is 7.69. Moreover, the results for the MIC in the data set with E. coli ATCC 25922 and in the data set with K. pneumoniae ATCC13883 were 1 µg/mL (≈ 2.19 µM) and 4 µg/mL (≈ 8.76 µM), respectively.
On to `C[C@H](O)c1nccn1Cc1cc(-c2ccc(C#Cc3ccc(C(O)CO)cc3)cc2)on1` (stereo partly drawn) [Example 30, 1-(4-((4-(3-((2-((S)-1-hydroxyethyl)-1H-imidazol-1-yl)methyl)isoxazol-5-yl)phenyl)ethynyl)phenyl)ethane-1,2-diol], for which the pIC50 in data set [1] (setting [4]) was 7.90. Moreover, the MIC with E. coli ATCC 25922 was 0.5 µg/mL (≈ 1.16 µM); in the data set on K. pneumoniae ATCC13883, 1 µg/mL (≈ 2.33 µM).
For `C[C@H](O)c1nccn1Cc1cc(-c2ccc(C#Cc3ccc(OC4CCN(C)CC4)cc3)cc2)on1` [Example 44, (S)-1-(1-((5-(4-((4-((1-methylpiperidin-4-yl)oxy)phenyl)ethynyl)phenyl)isoxazol-3-yl)methyl)-1H-imidazol-2-yl)ethan-1-ol], in that order: 7.73, 2 µg/mL (≈ 4.14 µM) and 8 µg/mL (≈ 16.6 µM).
